From US6914045B2, “Glycopeptide antibiotics” (Wyeth Holdings Corporation, priority 2001, dated 2005)
Values after ≈ are worked out from the molar mass of the structure shown. Where two headings read alike, the source gives them in different places.

Legend:
Assay in all cases: in vitro antibacterial evaluation, MIC by broth dilution
Assay type in all cases: cell-based
Enterococcus sp. = test system: Enterococcus sp.
Summary of the method: (§1)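 Read-out: the lowest concentration at which the test strain fails to grow. Serial dilutions (64-0.06 μg/mL) in Muller-Hinton II […], 5×10^5 CFU/mL inoculum, NCCLS M7-A2 procedure.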

Staphylococcus sp. = test system: Staphylococcus sp.
Summary of the method: as §1

Streptococcus sp. = test system: Streptococcus sp.
Summary of the method: as §1

Escherichia coli = test system: Escherichia coli
Summary of the method: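 Broth dilution MIC per NCCLS M7-A2 in Mueller-Hinton II medium, inoculum 5×10^5 CFU/mL, antibiotic range 64-0.06 μg/mL. MIC taken as lowest concentration inhibiting growth.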

[1] = broth dilution, 18 hours at 35° C.

CC(c1ccccc1)C1NC(=O)CNC(=O)C(CO)NC(=O)C(C(O)C2CN(c3nc4ccccc4s3)C(=N)N2C2OC(CO)C(O)C(O)C2O)NC(=O)C(C(O)C2CNC(=Nc3nc4ccccc4s3)N2)NC(=O)C(Cc2ccc(OC3OC(CO)C(OC4OC(CO)C(O)C(O)C4O)C(O)C3O)cc2)NC1=O (stereo not drawn) [Example 94, Cyclo[glycyl-β-methylphenylalanyl-O-(4-O-hexopyranosylhexopyranosyl)tyrosyl-3-[2-(1,3-benzothiazol-2-ylimino)imidazolidin-4-yl]seryl-3-[1-(1,3-benzo-thiazol-2-yl)-2-imino-3-hexopyranosylimidazolidin-4-yl]serylseryl]]
MIC Enterococcus avium (GC 4558) (Enterococcus sp.; Enterococcus avium (GC 4558), broth dilution, 18 hours at 35° C.): >64 µg/mL | MIC Enterococcus faecalis (ATCC 29212) (Enterococcus sp.; Enterococcus faecalis (ATCC 29212), broth dilution, 18 hours at 35° C.): >64 µg/mL | MIC Enterococcus faecalis (GC 4552) (Enterococcus sp.; Enterococcus faecalis (GC 4552), broth dilution, 18 hours at 35° C.): >64 µg/mL | MIC Enterococcus faecalis (GC 4553) (Enterococcus sp.; Enterococcus faecalis (GC 4553), broth dilution, 18 hours at 35° C.): >64 µg/mL | MIC Enterococcus faecalis (GC 4554) (Enterococcus sp.; Enterococcus faecalis (GC 4554), broth dilution, 18 hours at 35° C.): >64 µg/mL | MIC Enterococcus faecalis (GC 6189) (Enterococcus sp.; Enterococcus faecalis (GC 6189), broth dilution, 18 hours at 35° C.): >64 µg/mL | MIC Enterococcus faecium (GC 2243) (Enterococcus sp.; Enterococcus faecium (GC 2243), broth dilution, 18 hours at 35° C.): >64 µg/mL | MIC Enterococcus faecium (GC 4556) (Enterococcus sp.; Enterococcus faecium (GC 4556), broth dilution, 18 hours at 35° C.): >64 µg/mL | MIC Enterococcus faecium (GC 4557) (Enterococcus sp.; Enterococcus faecium (GC 4557), broth dilution, 18 hours at 35° C.): >64 µg/mL | MIC Enterococcus avium (GC 4558) (Enterococcus sp.; [1]): >64 µg/mL | MIC Enterococcus faecalis (ATCC 29212) (Enterococcus sp.; [1]): >64 µg/mL | MIC Enterococcus faecalis (GC 2242) (Enterococcus sp.; [1]): >64 µg/mL | MIC Enterococcus faecalis (GC 2691) (Enterococcus sp.; [1]): >64 µg/mL | MIC Enterococcus faecalis (GC 3059) (Enterococcus sp.; [1]): >64 µg/mL | MIC Enterococcus faecalis (GC 4552) (Enterococcus sp.; [1]): >64 µg/mL | MIC Enterococcus faecalis (GC 4553) (Enterococcus sp.; [1]): >64 µg/mL | MIC Enterococcus faecalis (GC 4554) (Enterococcus sp.; [1]): >64 µg/mL | MIC Enterococcus faecalis (GC 6189) (Enterococcus sp.; [1]): >64 µg/mL | MIC Enterococcus faecium (GC 2243) (Enterococcus sp.; [1]): >64 µg/mL | MIC Enterococcus faecium (GC 4556) (Enterococcus sp.; [1]): >64 µg/mL | MIC Enterococcus faecium (GC 4557) (Enterococcus sp.; [1]): >64 µg/mL | MIC Enterococcus faecalis (GC 2242) (Enterococcus sp.; broth dilution, 18 hours at 35° C., strain GC 2242): >64 µg/mL | MIC Enterococcus faecalis (GC 2691) (Enterococcus sp.; broth dilution, 18 hours at 35° C., strain GC 2691): >64 µg/mL | MIC Enterococcus faecalis (GC 3059) (Enterococcus sp.; broth dilution, 18 hours at 35° C., strain GC 3059): >64 µg/mL | MIC Coagulase Negative Staphylococcus (GC 4547) (Staphylococcus sp.; [1]): >64 µg/mL | MIC Coagulase Negative Staphylococcus (GC 4548) (Staphylococcus sp.; [1]): >64 µg/mL | MIC Coagulase Negative Staphylococcus (GC 4549) (Staphylococcus sp.; [1]): >64 µg/mL | MIC Coagulase Negative Staphylococcus (GC 4551) (Staphylococcus sp.; [1]): >64 µg/mL | MIC Staphylococcus aureus-SMITH (GC 4543) (Staphylococcus sp.; [1]): >64 µg/mL | MIC Staphylococcus haemolyticus (GC 4546) (Staphylococcus sp.; [1]): >64 µg/mL | MIC Staphylococcus aureus (ATCC 29213) (Staphylococcus sp.; strain ATCC 29213, broth dilution, 18 hours at 35° C.): >64 µg/mL | MIC Staphylococcus aureus (GC 1131) (Staphylococcus sp.; strain GC 1131, broth dilution, 18 hours at 35° C.): >64 µg/mL | MIC Staphylococcus aureus (GC 3051) (Staphylococcus sp.; strain GC 3051, broth dilution, 18 hours at 35° C.): >64 µg/mL | MIC Staphylococcus aureus (GC 3053) (Staphylococcus sp.; strain GC 3053, broth dilution, 18 hours at 35° C.): >64 µg/mL | MIC Staphylococcus aureus (GC 4541) (Staphylococcus sp.; strain GC 4541, broth dilution, 18 hours at 35° C.): >64 µg/mL | MIC Staphylococcus aureus (GC 4542) (Staphylococcus sp.; strain GC 4542, broth dilution, 18 hours at 35° C.): >64 µg/mL | MIC Staphylococcus aureus-SMITH (GC 4543) (Staphylococcus sp.; strain GC 4543, broth dilution, 18 hours at 35° C.): >64 µg/mL | MIC Staphylococcus aureus (GC 4544) (Staphylococcus sp.; strain GC 4544, broth dilution, 18 hours at 35° C.): >64 µg/mL | MIC Staphylococcus aureus (GC 4545) (Staphylococcus sp.; strain GC 4545, broth dilution, 18 hours at 35° C.): >64 µg/mL | MIC Staphylococcus haemolyticus (GC 4546) (Staphylococcus sp.; strain GC 4546, broth dilution, 18 hours at 35° C.): >64 µg/mL | MIC Coagulase Negative Staphylococcus (GC 4547) (Staphylococcus sp.; strain GC 4547, broth dilution, 18 hours at 35° C.): >64 µg/mL | MIC Coagulase Negative Staphylococcus (GC 4548) (Staphylococcus sp.; strain GC 4548, broth dilution, 18 hours at 35° C.): >64 µg/mL | MIC Coagulase Negative Staphylococcus (GC 4549) (Staphylococcus sp.; strain GC 4549, broth dilution, 18 hours at 35° C.): >64 µg/mL | MIC Coagulase Negative Staphylococcus (GC 4551) (Staphylococcus sp.; strain GC 4551, broth dilution, 18 hours at 35° C.): >64 µg/mL | MIC Streptococcus agalactiae (GC 4564) (Streptococcus sp.; [1]): >64 µg/mL | MIC Streptococcus pneumoniae (ATCC 6301) (Streptococcus sp.; [1]): >64 µg/mL | MIC Streptococcus pneumoniae (GC 1894) (Streptococcus sp.; [1]): >64 µg/mL | MIC Streptococcus pneumoniae (GC 4565) (Streptococcus sp.; [1]): >64 µg/mL | MIC Streptococcus pyogenes (GC 4563) (Streptococcus sp.; [1]): >64 µg/mL | MIC Streptococcus pneumoniae (ATCC 6301) (Streptococcus sp.; broth dilution, 18 hours at 35° C., strain ATCC 6301): >64 µg/mL | MIC Streptococcus pneumoniae (GC 1894) (Streptococcus sp.; broth dilution, 18 hours at 35° C., strain GC 1894): >64 µg/mL | MIC Streptococcus pyogenes (GC 4563) (Streptococcus sp.; broth dilution, 18 hours at 35° C., strain GC 4563): >64 µg/mL | MIC Streptococcus agalactiae (GC 4564) (Streptococcus sp.; broth dilution, 18 hours at 35° C., strain GC 4564): >64 µg/mL | MIC Streptococcus pneumoniae (GC 4565) (Streptococcus sp.; broth dilution, 18 hours at 35° C., strain GC 4565): >64 µg/mL | MIC Escherichia coli (ATCC 25922) (Escherichia coli; 18 hours at 35° C.): >64 µg/mL | MIC Escherichia coli (GC 4559) (Escherichia coli; 18 hours at 35° C.): >64 µg/mL | MIC Escherichia coli (GC 4560) (Escherichia coli; 18 hours at 35° C.): 64 µg/mL (≈ 41 µM)

CC(c1ccccc1)C1NC(=O)CNC(=O)C(CO)NC(=O)C(C(O)C2CNC(=N)N2C2OC(CO)C(O)C(O)C2O)NC(=O)C(C(O)C2CNC(=N)N2)NC(=O)C(Cc2ccc(OC3OC(CO)C(OC4OC(CO)C(O)C(O)C4O)C(O)C3O)c(I)c2)NC1=O (stereo not drawn) [Example 6, Cyclo[glycyl-β-methylphenylalanyl-O-(4-O-hexolpyranosylhexolpyranosyl)-3-iodo-tyrosyl-3-(2-iminoimidazolidin-4-yl)seryl-3-(3-hexolpyranosyl-2-iminoimidazolidin-4-yl)serylseryl]]
MIC Enterococcus avium (GC 4558) (Enterococcus sp.): >128 µg/mL | MIC Enterococcus faecalis (ATCC 29212) (Enterococcus sp.): >128 µg/mL | MIC Enterococcus faecalis (GC 2242) (Enterococcus sp.): >128 µg/mL | MIC Enterococcus faecalis (GC 4552) (Enterococcus sp.): >128 µg/mL | MIC Enterococcus faecalis (GC 4553) (Enterococcus sp.): >128 µg/mL | MIC Enterococcus faecalis (GC 4554) (Enterococcus sp.): >128 µg/mL | MIC Enterococcus faecium (GC 2243) (Enterococcus sp.): >128 µg/mL | MIC Enterococcus faecium (GC 4556) (Enterococcus sp.): >128 µg/mL | MIC Enterococcus faecium (GC 4557) (Enterococcus sp.): >128 µg/mL | MIC Coagulase Negative Staphylococcus (GC 4547) (Staphylococcus sp.): >128 µg/mL | MIC Coagulase Negative Staphylococcus (GC 4548) (Staphylococcus sp.): >128 µg/mL | MIC Coagulase Negative Staphylococcus (GC 4549) (Staphylococcus sp.): >128 µg/mL | MIC Coagulase Negative Staphylococcus (GC 4551) (Staphylococcus sp.): >128 µg/mL | MIC Coagulase Negative Staphylococcus (ID-3941) (Staphylococcus sp.): >128 µg/mL | MIC Staphylococcus aureus (ATCC 29213) (Staphylococcus sp.): >128 µg/mL | MIC Staphylococcus aureus (GC 1131) (Staphylococcus sp.): >128 µg/mL | MIC Staphylococcus aureus (GC 4541) (Staphylococcus sp.): >128 µg/mL | MIC Staphylococcus aureus (GC 4542) (Staphylococcus sp.): >128 µg/mL | MIC Staphylococcus aureus (GC 4544) (Staphylococcus sp.): >128 µg/mL | MIC Staphylococcus aureus (GC 4545) (Staphylococcus sp.): >128 µg/mL | MIC Staphylococcus aureus-SMITH (GC 4543) (Staphylococcus sp.): >128 µg/mL | MIC Staphylococcus haemolyticus (GC 4546) (Staphylococcus sp.): >128 µg/mL | MIC Streptococcus agalactiae (GC 4564) (Streptococcus sp.): >128 µg/mL | MIC Streptococcus pneumoniae (GC 4565) (Streptococcus sp.): >128 µg/mL | MIC Streptococcus pyogenes (ID-3187) (Streptococcus sp.): >128 µg/mL | MIC Escherichia coli (ATCC 25922) (Escherichia coli): >128 µg/mL | MIC Escherichia coli (GC 4559) (Escherichia coli): >128 µg/mL | MIC Escherichia coli (GC 4560) (Escherichia coli): >128 µg/mL
